Measured values taken from the supplement of paper PMC4862054.

Legend:
Conditions in all cases: incubation time: 72 h
CAL-148 [1] = experiment: drug sensitivity score (DSS), CellTiter-Glo (DSS (AUC-based score)); higher = stronger drug effect (viability inhibition or cytotoxicity); extreme values may be limits of the assay
Outline: (§1)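 In 384-well plates, compound was laid out at 5 concentrations in 10-fold steps over a 10,000-fold range specific to each compound, and breast cancer cell lines were seeded on top in 20 µl suspension for a 72 h incubation. CellTox Green fluorescence and then CellTiter-Glo luminescence were read, and each plate was normalised to 0.1 % DMSO and a positive kill control. The drug sensitivity score was calculated from the area under the fitted dose-response curve.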

HCC1599 = experiment: as above
Outline: as §1

CAL-148 [2] = experiment: normalised viability (% of control), CellTiter-Blue; higher = more viable cells (about 100 = DMSO control)
Protocol: (§2)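 DSRT, CellTiter-Blue viability, 72 h incubation. Signal is normalised to DMSO and benzethonium chloride controls. Value is the normalised response at dose 7.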

CAL-51 = experiment: as above
Protocol: as §2

CAL-85-1 = experiment: as above
Protocol: as §2

DU-4475 = experiment: as above
Protocol: as §2

HDQ-P1 = experiment: as above
Protocol: as §2

MDA-MB-453 = experiment: as above
Protocol: as §2

| Structure (SMILES) | drug sensitivity score (CAL-148 [1]) | drug sensitivity score (HCC1599) | normalised viability (CAL-148 [2]) [%] | normalised viability (CAL-51) [%] | normalised viability (CAL-85-1) [%] | normalised viability (DU-4475) [%] | normalised viability (HDQ-P1) [%] | normalised viability (MDA-MB-453) [%] |
| --- | --- | --- | --- | --- | --- | --- | --- | --- |
| N#CCNC(=O)c1ccc(-c2ccnc(Nc3ccc(N4CCOCC4)cc3)n2)cc1 [Momelotinib] | 0 | 0 | – | – | – | – | – | – |
| C=C(c1ccc(C(=O)O)cc1)c1cc2c(cc1C)C(C)(C)CCC2(C)C [Bexarotene] (1000 nM) | – | – | 96.6 | 80.6 | 84.5 | 116 | 76 | 86.5 |
| O=C(O)c1ccc(-c2c[nH]c3ncc(-c4ccccc4)cc23)cc1C1CCCC1 | 0 | 0 | – | – | – | – | – | – |
| Cc1ccc(C(=O)N(CCCN)[C@@H](c2oc3cc(Cl)ccc3c(=O)c2Cc2ccccc2)C(C)C)cc1 (100 nM) | – | – | 18.9 | 34.7 | 30.1 | 43 | 72.5 | 25.4 |
| NC(=O)Nc1cc(-c2cccc(F)c2)sc1C(=O)N[C@H]1CCCNC1 [AZD7762] | 0 | 6.96 | – | – | – | – | – | – |
| CNCc1ccc(-c2[nH]c3cc(F)cc4c3c2CCNC4=O)cc1 [Rucaparib] (1000 nM) | – | – | 92.2 | 103 | 85.4 | 82.3 | 89.6 | 102 |
| C#Cc1cccc(Nc2ncnc3cc(OCCOC)c(OCCOC)cc23)c1 [Erlotinib] (1000 nM) | – | – | 63 | 92 | 62.4 | 94.8 | 71.6 | 91.4 |
| CN[C@@H]1C[C@H]2O[C@@](C)([C@@H]1OC)n1c3ccccc3c3c4c(c5c6ccccc6n2c5c31)C(=O)N[C@H]4O [UCN-01] (1000 nM) | – | – | 81.5 | 16.8 | 33.7 | 10.1 | 32.1 | 30.2 |
| O=C1CCC(N2C(=O)c3ccccc3C2=O)C(=O)N1 (centres undefined) [Thalidomide] (1000 nM) | – | – | 116 | 84.8 | 99.4 | 97 | 81.1 | 103 |
| CN(N=O)C(=O)N[C@@H](C=O)[C@@H](O)[C@H](O)[C@H](O)CO [Streptozocin] (1000 nM) | – | – | 98.6 | 103 | 91.2 | 112 | 95.5 | 105 |
| Cc1ccc(C(=O)Nc2ccc(CN3CCN(C)CC3)c(C(F)(F)F)c2)cc1C#Cc1cnc2cccnn12 [Ponatinib] (100 nM) | – | – | 94.8 | 82.9 | 89.3 | 104 | 92.8 | 77.7 |
| CCC1=C[C@@H]2CN(C1)Cc1c([nH]c3ccccc13)[C@@](C(=O)OC)(c1cc3c(cc1OC)N(C)[C@H]1[C@@](O)(C(=O)OC)[C@H](OC(C)=O)[C@]4(CC)C=CCN5CC[C@]31[C@@H]54)C2 [Vinorelbine] (1000 nM) | – | – | 21.1 | 19.7 | 37.5 | 29 | 38.6 | 28 |
| CC1(C)NC(=O)N(c2ccc([N+](=O)[O-])c(C(F)(F)F)c2)C1=O [Nilutamide] (1000 nM) | – | – | 108 | 99.7 | 94.2 | 102 | 123 | 108 |
| Oc1nc(-c2ccc(C(F)(F)F)cc2)nc2c1CSCC2 [XAV-939] (1000 nM) | – | – | 101 | 93.2 | 81.8 | 108 | 103 | 90.3 |
| Cc1ccc(-n2nc(C(C)(C)C)cc2NC(=O)Nc2ccc(OCCN3CCOCC3)c3ccccc23)cc1 [Doramapimod] (1000 nM) | – | – | 105 | 101 | 73.5 | 122 | 66.7 | 87.9 |
| Cn1c(CCCC(=O)O)nc2cc(N(CCCl)CCCl)ccc21 [Bendamustine] (1000 nM) | – | – | 117 | 109 | 86.3 | 112 | 108 | 102 |

| Structure (SMILES) | drug sensitivity score (CAL-148 [1]) | drug sensitivity score (HCC1599) | normalised viability (CAL-148 [2]) [%] | normalised viability (CAL-51) [%] | normalised viability (CAL-85-1) [%] | normalised viability (DU-4475) [%] | normalised viability (HDQ-P1) [%] | normalised viability (MDA-MB-453) [%] |
| --- | --- | --- | --- | --- | --- | --- | --- | --- |
| N[C@@H](CSC(c1ccccc1)(c1ccccc1)c1ccccc1)C(=O)O [S-trityl-L-cysteine] (4000 nM) | – | – | 117 | 85.1 | 98.3 | 103 | 86.5 | 94.3 |
| Cn1c(Nc2ccc(C(F)(F)F)cc2)nc2cc(Oc3ccnc(-c4ncc(C(F)(F)F)[nH]4)c3)ccc21 [RAF265] (100 nM) | – | – | 101 | 86.1 | 80.5 | 104 | 74.6 | 83.7 |
| CCC1(c2ccc(N)cc2)CCC(=O)NC1=O (centres undefined) [Aminoglutethimide] (1000 nM) | – | – | 113 | 91 | 95.2 | 86.1 | 79.3 | 88.8 |
| C[C@]12CC[C@@H]3c4ccc(O)cc4C[C@@H](CCCCCCCCC[S+]([O-])CCCC(F)(F)C(F)(F)F)[C@H]3[C@@H]1CC[C@@H]2O (some centres undefined) [Fulvestrant] (1000 nM) | – | – | 92.4 | 111 | 84.9 | 93.5 | 84.3 | 84.6 |
| O=P1(NCCCl)OCCCN1CCCl (centres undefined) [Ifosfamide] (1000 nM) | – | – | 101 | 114 | 81.2 | 101 | 103 | 112 |
| N.N.[Cl][Pt][Cl] [Cisplatin] (1000 nM) | – | – | 112 | 104 | 86.4 | 110 | 108 | 103 |
| COc1cc2ncnc(Nc3ccc(F)c(Cl)c3)c2cc1NC(=O)/C=C/CN1CCCCC1 [Dacomitinib] | 0 | 0 | – | – | – | – | – | – |
| COc1cc([C@@H]2c3cc4c(cc3[C@@H](O[C@@H]3O[C@@H]5CO[C@@H](C)O[C@H]5[C@H](O)[C@H]3O)[C@H]3COC(=O)[C@H]23)OCO4)cc(OC)c1O [Etoposide] (1000 nM) | – | – | 63.4 | 35.4 | 90.8 | 12.3 | 88.8 | 93.4 |
| CO[C@H]1/C=C\C=C(/C)C(=O)NC2=CC(=O)C(NCCN(C)C)=C(C[C@@H](C)C[C@H](OC)[C@H](O)[C@@H](C)/C=C(\C)[C@@H]1OC(N)=O)C2=O [Alvespimycin] (100 nM) | – | – | 15.6 | 34.7 | 33.1 | 0.89 | 38 | 6.21 |
| CN(C)/N=N/c1[nH]cnc1C(N)=O [Dacarbazine] (1000 nM) | – | – | 106 | 85.8 | 90 | 96.2 | 110 | 109 |
| Clc1ccc(Nc2nnc(Cc3ccncc3)c3ccccc23)cc1 [Vatalanib] (1000 nM) | – | – | 83.4 | 101 | 92.5 | 97.8 | 98.6 | 91.6 |
| C[C@@H](Oc1cc(-c2cnn(C3CCNCC3)c2)cnc1N)c1c(Cl)ccc(F)c1Cl [Crizotinib] (1000 nM) | – | – | 96.4 | 108 | 86.9 | 108 | 92.5 | 91.9 |
| CS(=O)(=O)c1ccc(C2=C(c3ccccc3)C(=O)OC2)cc1 [Rofecoxib] | 0 | 0 | – | – | – | – | – | – |
| CCCCCCCCCCCCCCCCCCOP(=O)([O-])OC1CC[N+](C)(C)CC1 [Perifosine] | 0 | 0 | – | – | – | – | – | – |
| O=C(CCCCCCC(=O)Nc1ccc([C@H]2O[C@@H](CSc3nc(-c4ccccc4)c(-c4ccccc4)o3)C[C@@H](c3ccc(CO)cc3)O2)cc1)NO [Tubacin] | 0.986 | 4.67 | – | – | – | – | – | – |
| COc1cc2nccc(Oc3ccc(NC(=O)C4(C(=O)Nc5ccc(F)cc5)CC4)cc3)c2cc1OC [Cabozantinib] (100 nM) | – | – | 107 | 102 | 79.6 | 91.8 | 85.5 | 95.3 |
